Series [1] can be described thus: Inhibition of the locomotion exploratory activity according to Janssen (suppression of the locomotor exploration activity on rats). Set-up: species or system male rats of the Sprague-Dawley type. Conditions: rat, in vivo, po, 1 h before test; dosage corresponding to 9 points for six pairs of rats. An excerpt: (§1) Such tests, for instance, compare the pain allaying effect of the test compound in the arthritis pain test with the sedative and muscle relaxing effects which impair the normal activity of rats.
2. Determination of the inhibition of the locomotion exploratory activity according to the method described by Janssen in "Psychopharmakologie", vol. 1 (1961), pages 141-146.
The compound to be tested is orally administered in the form of a suspension in 2% Tylose solution to male rats of the Sprague-Dawley type one hour before starting the test. Six pairs of rats are used for each dosage to be administered. Each pair of rats is then placed into an environment which is entirely unknown to them. The locomotor activity of said rats with respect to the exploration and inquisitiveness phase within the first thirty seconds is observed and recorded by two observers. The observed activity is evaluated according to a point system. According to said system the highest possible number of points for six pairs of rats amounts to 18 points. That dosage which corresponds to 9 points for six pairs of rats is designated as ED50.

The next series deals with arthritis pain in rats. Briefly: Arthritis pain test on rats (suppression of the arthritis pain in rats). Format: in vivo, male rats of the OFA strain. Particulars: Rattus norvegicus, po, 3 h after administration; dosage protecting 50% of the treated animals against pain. As to the method: as §1
1. Arthritis pain test on rats.
Male rats of the OFA strain, weighing between 160 g. and 180 g. are anesthetized by intraperitoneal administration of 20 mg./kg. of Pentobarbital Sodium. 0.1 ml. of a suspension of 0.6 mg. of Mycobacterium Smegmae (SI043) in paraffin oil are injected intracutaneously into the left hind paw of the rats. Fourteen days thereafter, when a pronounced secondary arthritis has developed especially in the right hind paw of the rats, the effects of the test compounds are investigated. For this purpose a control measurement is carried out thirty minutes before administration of the compound to be tested by deflecting three times the ankle joints of the right hind paws of the test animals and counting the number of distress sounds emitted by them. […] The ankle joint deflecting procedure is repeated three hours after oral administration of the compounds to be tested. Animals which emit distress sounds either only once or not at all are considered as being protected against pain. The dosage by which protection against pain is achieved in 50% of the treated animals is designated as the effective dosage ED50.

The next series in a line: Acute toxicity on mice. Conditions: mouse, in vivo, po, read-out: Acute toxicity on mice ED50.

The ED50 is the dose at which the effect has come halfway, by size or by number of responders. Higher therefore signals a need for a large dose. In turn, `CN1C(=O)CN=C(c2ccccc2)c2cc(Cl)ccc21` [Diazepam, 7-chloro-1-methyl-5-phenyl-1,3-dihydro-2H-1,4-benzo diazepin-2-one, reference compound] displayed an ED50 at 1 h in series [1] of 11.5 mg/kg. In the series on arthritis pain in rats, this molecule displayed an ED50 of 6.2 mg/kg.

Molecule `COCC1CN=C(c2ccccc2Cl)c2cc(Br)ccc2N1C` (centres unmarked) [compound 1, 1-methyl-7-bromo-2-methoxy methyl-5-(2-chlorophenyl)-1H-2,3-dihydro-1,4-benzo diazepine] came in with an ED50 at 1 h in series [1] of 56.2 mg/kg. For the same molecule, the LD50 in the series “Acute toxicity on mice” was 2390 mg/kg. Besides, it took a dose of 4.8 mg/kg to reach the 50% effect level with arthritis pain in rats (ED50).

Molecule `COCC1CN=C(c2ccccc2Cl)c2cc(Cl)ccc2N1C` (centres unmarked) [compound 2, 1-methyl-7-chloro-2-methoxy methyl-5-(2-chlorophenyl)-1H-2,3-dihydro-1,4-benzo diazepine] yielded an ED50 at 1 h in series [1] of 55.5 mg/kg. Moreover, the LD50 in “Acute toxicity on mice” is 1470 mg/kg. The median effective dose (ED50) in the series with arthritis pain in rats turned out to be 10 mg/kg.

Source of the values: patent publication US4482548A, “Analgesic pharmaceutical compositions containing 5-phenyl-1,4-benzo diazepine compounds and a method of using same” (Kali-Chemie Pharma GmbH, priority 1982, dated 1984).
